From ChEMBL document CHEMBL5212743, “Selectivity Literature for EUbOPEN Chemogenomics Library wave 3” (2023)
Each block holds one compound with its values, some of them ahead of it.

Experiments:
[1] = target: 5-hydroxytryptamine receptor 2B (Homo sapiens, UniProt P41595); experiment: Selectivity interaction (GPCR panel (PDSP screen)) EUB0000748a HTR2B
[2] = target: T1, Sigma non-opioid intracellular receptor 1 (Homo sapiens, UniProt Q99720); experiment: Selectivity interaction (GPCR panel (PDSP screen)) EUB0000748a SIGMAR1
[3] = target: Receptor tyrosine-protein kinase erbB-2 (Homo sapiens) (UniProt P04626); experiment: Selectivity interaction (KinomeScan (DiscoverX)) EUB0000638a ERBB2; details: at 1 µM
[4] = target: Receptor tyrosine-protein kinase erbB-4 (Homo sapiens) (UniProt Q15303); experiment: Selectivity interaction (KinomeScan (DiscoverX)) EUB0000638a ERBB4; details: at 1 µM
[5] = target: Tyrosine-protein kinase Blk (Homo sapiens, UniProt P51451); experiment: Selectivity interaction (Z’-LYTE assay) EUB0000638a BLK
[6] = target: Tyrosine-protein kinase Fgr (Homo sapiens, UniProt P09769); experiment: Selectivity interaction (Z’-LYTE assay) EUB0000638a FGR
[7] = target: Tyrosine-protein kinase Fyn (Homo sapiens, UniProt P06241); experiment: Selectivity interaction (Z’-LYTE assay) EUB0000638a FYN
[8] = target: Tyrosine-protein kinase HCK (Homo sapiens, UniProt P08631); experiment: Selectivity interaction (Z’-LYTE assay) EUB0000638a HCK
[9] = target: Tyrosine-protein kinase Lck (Homo sapiens, UniProt P06239); experiment: Selectivity interaction (Z’-LYTE assay) EUB0000638a LCK
[10] = target: Tyrosine-protein kinase Lyn (Homo sapiens, UniProt P07948); experiment: Selectivity interaction (Z’-LYTE assay) EUB0000638a LYN
[11] = target: Proto-oncogene tyrosine-protein kinase Src (Homo sapiens, UniProt P12931); experiment: Selectivity interaction (Z’-LYTE assay) EUB0000638a SRC
[12] = target: Tyrosine-protein kinase Yes (Homo sapiens, UniProt P07947); experiment: Selectivity interaction (Z’-LYTE assay) EUB0000638a YES1
[13] = target: Tyrosine-protein kinase Tec (Homo sapiens) (UniProt P42680); details: at 1 µM
Histamine H1 receptor [14] = target: T2, Histamine H1 receptor (Homo sapiens, UniProt P35367); experiment: Selectivity interaction (GPCR panel (PDSP screen)) EUB0000289c HRH1
[15] = target: Serine/threonine-protein kinase BRSK2 (Homo sapiens, UniProt Q8IWQ3); experiment: Selectivity interaction (KinomeScan (DiscoverX, competition-binding assay)) EUB0000289c BRSK2
[16] = target: Serine/threonine-protein kinase BRSK2 (Homo sapiens) (UniProt Q8IWQ3); experiment: Selectivity interaction (KinomeScan (DiscoverX)) EUB0000289c BRSK2; details: at 1 µM
[17] = target: T3, Serine/threonine-protein kinase Nek7 (Homo sapiens, UniProt Q8TDX7); experiment: Selectivity interaction (KinomeScan (DiscoverX, competition-binding assay)) EUB0000289c NEK7
Target sequence in this assay (Q8TDX7 whole entry): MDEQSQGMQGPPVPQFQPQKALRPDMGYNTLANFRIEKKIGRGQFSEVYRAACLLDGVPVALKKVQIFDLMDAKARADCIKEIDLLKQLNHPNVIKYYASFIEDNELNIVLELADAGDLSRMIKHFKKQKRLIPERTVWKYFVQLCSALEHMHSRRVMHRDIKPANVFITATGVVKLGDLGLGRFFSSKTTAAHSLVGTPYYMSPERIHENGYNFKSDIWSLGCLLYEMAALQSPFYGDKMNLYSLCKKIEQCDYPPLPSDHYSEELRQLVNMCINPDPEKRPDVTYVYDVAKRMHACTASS

[18] = target: T3, Serine/threonine-protein kinase Nek7; experiment: Selectivity interaction (KinomeScan (DiscoverX)) EUB0000289c NEK7; details: at 1 µM
Target sequence in this assay (Q8TDX7 whole entry, looked up): as the sequence (Q8TDX7 whole entry) above

[19] = target: Lysosomal Pro-X carboxypeptidase (Homo sapiens) (UniProt P42785); experiment: Selectivity interaction (CEREP panel (Eurofins, panel of ion channels, receptors, GPCRs, and enzymes (ligand binding assay))) EUB0000289c PRCP; details: at 3 µM
Ephrin type-A receptor 1 = Ephrin type-A receptor 1 (Homo sapiens, UniProt P21709); experiment: Selectivity interaction (KinomeScan (DiscoverX, competition-binding assay)) EUB0000289c EPHA1
[20] = target: Ephrin type-A receptor 1 (Homo sapiens) (UniProt P21709); experiment: Selectivity interaction (KinomeScan (DiscoverX)) EUB0000289c EPHA1; details: at 1 µM
[21] = target: G protein-coupled receptor kinase 3 (Homo sapiens, UniProt P35626); experiment: Selectivity interaction (KinomeScan (DiscoverX, competition-binding assay)) EUB0000289c ADRBK2
[22] = target: T4, G protein-coupled receptor kinase 3 (Homo sapiens) (UniProt P35626); experiment: Selectivity interaction (KinomeScan (DiscoverX)) EUB0000289c ADRBK2; details: at 1 µM
T4 sequence (whole entry): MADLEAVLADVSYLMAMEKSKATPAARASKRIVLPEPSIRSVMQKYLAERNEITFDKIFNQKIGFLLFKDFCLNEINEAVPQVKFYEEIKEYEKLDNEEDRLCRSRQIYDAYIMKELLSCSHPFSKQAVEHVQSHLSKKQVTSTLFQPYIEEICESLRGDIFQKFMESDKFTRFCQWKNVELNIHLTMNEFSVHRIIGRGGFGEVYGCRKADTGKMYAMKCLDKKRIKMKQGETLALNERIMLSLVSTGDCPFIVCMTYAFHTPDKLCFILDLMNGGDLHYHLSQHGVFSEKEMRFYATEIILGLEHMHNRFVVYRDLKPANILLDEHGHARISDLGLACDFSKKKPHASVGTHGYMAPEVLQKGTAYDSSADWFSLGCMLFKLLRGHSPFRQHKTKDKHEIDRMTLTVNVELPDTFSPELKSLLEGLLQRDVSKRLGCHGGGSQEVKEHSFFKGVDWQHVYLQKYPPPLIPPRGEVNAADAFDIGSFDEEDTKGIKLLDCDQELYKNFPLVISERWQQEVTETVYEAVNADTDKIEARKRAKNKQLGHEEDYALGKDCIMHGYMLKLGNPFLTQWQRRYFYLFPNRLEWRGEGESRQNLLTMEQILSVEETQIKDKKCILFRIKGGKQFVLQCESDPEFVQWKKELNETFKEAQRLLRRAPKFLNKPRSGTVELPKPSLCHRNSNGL

Histamine H1 receptor [23] = target: T2, Histamine H1 receptor; experiment: (§1) Selectivity interaction (GPCR panel (PDSP screen)) EUB0000348aPTSA HRH1; details: at 10 µM
Histamine H1 receptor [24] = target: T2, Histamine H1 receptor; experiment: as §1
[25] = target: Delta-type opioid receptor (Homo sapiens) (UniProt P41143); experiment: Selectivity interaction (CEREP panel (Eurofins, receptors, ion channels, and other enzymes)) EUB0000348aPTSA OPRD1; details: at 10 µM
[26] = target: Cyclin-dependent kinase 5 (Homo sapiens) (UniProt Q00535); experiment: Selectivity interaction (KinomeScan (DiscoverX)) EUB0000348aPTSA CDK5; details: at 1 µM
[27] = target: Dual specificity protein kinase CLK4 (Homo sapiens) (UniProt Q9HAZ1); experiment: Selectivity interaction (KinomeScan (DiscoverX)) EUB0000348aPTSA CLK4; details: at 1 µM
[28] = target: T5, Mitogen-activated protein kinase kinase kinase 13 (Homo sapiens) (UniProt O43283); experiment: Selectivity interaction (KinomeScan (DiscoverX)) EUB0000348aPTSA MAP3K13; details: at 1 µM
T5 sequence (whole entry): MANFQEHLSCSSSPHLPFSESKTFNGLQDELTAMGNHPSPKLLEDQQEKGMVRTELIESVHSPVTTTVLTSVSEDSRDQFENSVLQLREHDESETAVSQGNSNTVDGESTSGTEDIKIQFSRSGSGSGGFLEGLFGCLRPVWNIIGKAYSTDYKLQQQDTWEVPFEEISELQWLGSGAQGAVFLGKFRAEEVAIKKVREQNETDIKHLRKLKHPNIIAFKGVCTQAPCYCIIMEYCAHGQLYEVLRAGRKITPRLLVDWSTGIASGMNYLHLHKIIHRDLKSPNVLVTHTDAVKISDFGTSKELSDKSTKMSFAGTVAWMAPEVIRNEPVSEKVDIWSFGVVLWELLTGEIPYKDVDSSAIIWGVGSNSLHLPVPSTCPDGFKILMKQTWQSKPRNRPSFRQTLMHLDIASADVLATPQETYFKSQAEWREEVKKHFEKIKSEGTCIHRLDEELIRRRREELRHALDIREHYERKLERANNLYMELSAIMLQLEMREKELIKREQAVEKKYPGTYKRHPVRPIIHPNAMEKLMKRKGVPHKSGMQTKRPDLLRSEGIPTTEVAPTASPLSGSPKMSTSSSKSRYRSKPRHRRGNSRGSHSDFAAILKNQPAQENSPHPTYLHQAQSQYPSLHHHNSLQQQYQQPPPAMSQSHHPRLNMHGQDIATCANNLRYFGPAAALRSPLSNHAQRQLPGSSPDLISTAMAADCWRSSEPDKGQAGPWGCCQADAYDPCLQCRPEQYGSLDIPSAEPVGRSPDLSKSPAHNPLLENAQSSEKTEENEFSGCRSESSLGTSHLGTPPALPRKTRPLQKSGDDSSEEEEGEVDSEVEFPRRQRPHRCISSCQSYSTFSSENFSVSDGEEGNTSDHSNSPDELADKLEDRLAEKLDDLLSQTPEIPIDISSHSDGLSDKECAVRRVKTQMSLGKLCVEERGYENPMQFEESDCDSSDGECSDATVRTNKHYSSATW

[29] = target: Endothelin receptor type B (Homo sapiens) (UniProt P24530); details: at 10 µM
[30] = target: T6, Gamma-aminobutyric acid receptor subunit alpha-1 (Homo sapiens, UniProt P14867); experiment: Selectivity interaction (GPCR panel (PDSP screen)) EUB0000547a GABRA1
T6 sequence (P14867 whole entry): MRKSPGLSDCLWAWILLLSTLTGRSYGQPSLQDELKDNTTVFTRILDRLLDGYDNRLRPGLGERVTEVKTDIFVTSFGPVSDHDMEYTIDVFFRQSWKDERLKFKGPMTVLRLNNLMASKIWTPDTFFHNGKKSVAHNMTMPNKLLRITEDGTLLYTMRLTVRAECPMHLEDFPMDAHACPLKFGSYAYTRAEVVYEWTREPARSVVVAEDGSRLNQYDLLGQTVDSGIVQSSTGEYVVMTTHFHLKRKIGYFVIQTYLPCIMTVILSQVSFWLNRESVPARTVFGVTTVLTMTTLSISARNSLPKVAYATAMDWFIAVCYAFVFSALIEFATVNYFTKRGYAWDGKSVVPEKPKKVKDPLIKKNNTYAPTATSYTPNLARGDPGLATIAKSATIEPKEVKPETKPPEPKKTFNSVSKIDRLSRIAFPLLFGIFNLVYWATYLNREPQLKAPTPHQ

[31] = target: Tyrosine-protein kinase ZAP-70 (Homo sapiens) (UniProt P43403); experiment: Selectivity interaction (KinomeScan (DiscoverX)) EUB0000547a ZAP70; details: at 1 µM
[32] = target: T5, Mitogen-activated protein kinase kinase kinase 13 (Homo sapiens); experiment: Selectivity interaction (KinomeScan (DiscoverX)) EUB0000547a MAP3K13; details: at 1 µM
[33] = target: T1, Sigma non-opioid intracellular receptor 1; experiment: Selectivity interaction (GPCR panel (PDSP screen)) EUB0000289bCl SIGMAR1
[34] = target: Alpha-2B adrenergic receptor (Homo sapiens, UniProt P18089); experiment: Selectivity interaction (GPCR panel (PDSP screen)) EUB0000309b ADRA2B

T2 sequence (P35367 whole entry): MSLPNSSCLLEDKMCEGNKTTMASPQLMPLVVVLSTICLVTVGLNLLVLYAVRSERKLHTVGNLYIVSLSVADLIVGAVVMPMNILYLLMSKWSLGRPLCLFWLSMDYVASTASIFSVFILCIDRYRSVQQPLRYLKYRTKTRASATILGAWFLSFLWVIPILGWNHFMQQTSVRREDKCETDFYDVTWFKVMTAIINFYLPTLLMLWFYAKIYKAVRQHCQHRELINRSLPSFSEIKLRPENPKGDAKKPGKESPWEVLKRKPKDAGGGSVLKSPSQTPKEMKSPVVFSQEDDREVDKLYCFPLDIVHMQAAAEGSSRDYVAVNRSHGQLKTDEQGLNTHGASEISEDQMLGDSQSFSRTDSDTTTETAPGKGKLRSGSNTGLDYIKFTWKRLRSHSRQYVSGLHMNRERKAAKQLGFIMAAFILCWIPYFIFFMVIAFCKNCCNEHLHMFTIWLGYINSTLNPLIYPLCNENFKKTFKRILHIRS
T1 sequence (Q99720 whole entry): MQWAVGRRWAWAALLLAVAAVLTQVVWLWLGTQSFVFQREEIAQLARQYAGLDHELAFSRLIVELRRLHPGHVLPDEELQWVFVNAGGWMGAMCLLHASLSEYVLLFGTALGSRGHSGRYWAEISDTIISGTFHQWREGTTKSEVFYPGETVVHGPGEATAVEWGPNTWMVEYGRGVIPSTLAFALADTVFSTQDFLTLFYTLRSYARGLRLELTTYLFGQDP
Sequence of Serine/threonine-protein kinase BRSK2 (Q8IWQ3 whole entry): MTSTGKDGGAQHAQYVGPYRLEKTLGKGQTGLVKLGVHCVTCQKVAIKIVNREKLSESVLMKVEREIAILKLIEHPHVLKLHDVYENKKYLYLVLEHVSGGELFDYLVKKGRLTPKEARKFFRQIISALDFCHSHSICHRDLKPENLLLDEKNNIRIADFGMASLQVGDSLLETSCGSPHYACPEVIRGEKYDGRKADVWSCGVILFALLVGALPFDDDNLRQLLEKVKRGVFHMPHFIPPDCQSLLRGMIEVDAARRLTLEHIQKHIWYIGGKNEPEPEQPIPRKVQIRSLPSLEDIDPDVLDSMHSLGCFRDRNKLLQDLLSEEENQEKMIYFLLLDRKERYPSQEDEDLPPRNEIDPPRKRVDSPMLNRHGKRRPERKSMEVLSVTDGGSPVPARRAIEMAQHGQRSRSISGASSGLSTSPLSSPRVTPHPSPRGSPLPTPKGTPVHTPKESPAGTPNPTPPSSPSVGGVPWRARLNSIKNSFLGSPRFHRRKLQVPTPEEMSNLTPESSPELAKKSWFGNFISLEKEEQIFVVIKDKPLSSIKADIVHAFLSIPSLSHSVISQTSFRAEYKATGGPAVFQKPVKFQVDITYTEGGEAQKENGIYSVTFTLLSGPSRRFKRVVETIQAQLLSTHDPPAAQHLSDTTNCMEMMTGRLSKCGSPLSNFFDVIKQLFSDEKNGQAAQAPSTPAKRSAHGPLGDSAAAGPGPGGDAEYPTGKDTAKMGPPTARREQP
Sequence of Serine/threonine-protein kinase BRSK2 (Homo sapiens) (Q8IWQ3 whole entry): as above
Sequence of Tyrosine-protein kinase Lyn (P07948 whole entry): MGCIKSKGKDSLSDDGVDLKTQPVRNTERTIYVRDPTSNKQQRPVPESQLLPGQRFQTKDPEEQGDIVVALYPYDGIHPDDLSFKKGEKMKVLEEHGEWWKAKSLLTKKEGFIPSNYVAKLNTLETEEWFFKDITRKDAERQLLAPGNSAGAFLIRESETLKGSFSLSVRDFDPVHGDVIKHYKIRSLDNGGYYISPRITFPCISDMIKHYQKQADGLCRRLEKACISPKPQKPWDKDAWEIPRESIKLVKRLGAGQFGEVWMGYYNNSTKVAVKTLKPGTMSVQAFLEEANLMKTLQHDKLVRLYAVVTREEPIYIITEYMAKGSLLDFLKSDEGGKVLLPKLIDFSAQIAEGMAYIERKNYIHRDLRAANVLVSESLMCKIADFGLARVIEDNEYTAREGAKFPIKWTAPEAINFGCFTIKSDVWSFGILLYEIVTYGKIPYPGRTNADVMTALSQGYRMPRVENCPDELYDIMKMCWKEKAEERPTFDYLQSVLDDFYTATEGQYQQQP
Sequence of Delta-type opioid receptor (Homo sapiens) (P41143 whole entry): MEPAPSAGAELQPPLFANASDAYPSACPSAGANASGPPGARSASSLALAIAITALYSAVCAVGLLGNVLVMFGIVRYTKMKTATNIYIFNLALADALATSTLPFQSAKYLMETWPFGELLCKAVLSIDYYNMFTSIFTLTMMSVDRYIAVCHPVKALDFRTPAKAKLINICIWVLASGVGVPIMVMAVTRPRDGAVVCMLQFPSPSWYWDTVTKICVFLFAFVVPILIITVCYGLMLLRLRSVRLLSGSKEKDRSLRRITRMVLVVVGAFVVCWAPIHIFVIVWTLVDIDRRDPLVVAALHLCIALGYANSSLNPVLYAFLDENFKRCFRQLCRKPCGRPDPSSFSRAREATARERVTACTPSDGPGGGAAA
Sequence of 5-hydroxytryptamine receptor 2B (P41595 whole entry): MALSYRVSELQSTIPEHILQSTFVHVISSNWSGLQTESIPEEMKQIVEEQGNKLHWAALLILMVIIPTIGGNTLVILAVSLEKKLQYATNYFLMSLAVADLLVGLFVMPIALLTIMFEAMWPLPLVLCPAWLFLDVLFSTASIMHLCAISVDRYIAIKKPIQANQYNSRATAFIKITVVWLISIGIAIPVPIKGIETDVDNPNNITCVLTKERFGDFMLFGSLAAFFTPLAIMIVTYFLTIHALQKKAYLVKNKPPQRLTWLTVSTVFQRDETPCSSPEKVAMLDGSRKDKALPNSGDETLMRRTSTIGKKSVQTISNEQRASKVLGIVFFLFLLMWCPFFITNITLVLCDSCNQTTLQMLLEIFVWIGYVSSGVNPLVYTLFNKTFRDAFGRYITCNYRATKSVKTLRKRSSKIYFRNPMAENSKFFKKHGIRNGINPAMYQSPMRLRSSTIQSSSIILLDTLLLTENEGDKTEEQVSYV
Sequence of Lysosomal Pro-X carboxypeptidase (Homo sapiens) (P42785 whole entry): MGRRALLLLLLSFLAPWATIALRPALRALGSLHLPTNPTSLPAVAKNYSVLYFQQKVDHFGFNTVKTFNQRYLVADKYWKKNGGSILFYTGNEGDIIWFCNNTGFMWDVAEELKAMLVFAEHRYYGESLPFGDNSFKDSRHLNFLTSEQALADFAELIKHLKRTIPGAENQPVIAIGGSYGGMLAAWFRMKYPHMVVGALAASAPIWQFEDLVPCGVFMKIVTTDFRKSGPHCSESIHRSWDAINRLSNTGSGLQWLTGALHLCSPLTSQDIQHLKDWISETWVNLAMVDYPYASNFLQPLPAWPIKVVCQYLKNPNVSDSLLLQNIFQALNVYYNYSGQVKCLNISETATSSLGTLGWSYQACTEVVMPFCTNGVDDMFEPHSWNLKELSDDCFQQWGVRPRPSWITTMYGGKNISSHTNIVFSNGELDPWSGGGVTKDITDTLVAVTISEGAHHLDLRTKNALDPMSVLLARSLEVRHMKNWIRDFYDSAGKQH
Sequence of Receptor tyrosine-protein kinase erbB-2 (Homo sapiens) (P04626 whole entry): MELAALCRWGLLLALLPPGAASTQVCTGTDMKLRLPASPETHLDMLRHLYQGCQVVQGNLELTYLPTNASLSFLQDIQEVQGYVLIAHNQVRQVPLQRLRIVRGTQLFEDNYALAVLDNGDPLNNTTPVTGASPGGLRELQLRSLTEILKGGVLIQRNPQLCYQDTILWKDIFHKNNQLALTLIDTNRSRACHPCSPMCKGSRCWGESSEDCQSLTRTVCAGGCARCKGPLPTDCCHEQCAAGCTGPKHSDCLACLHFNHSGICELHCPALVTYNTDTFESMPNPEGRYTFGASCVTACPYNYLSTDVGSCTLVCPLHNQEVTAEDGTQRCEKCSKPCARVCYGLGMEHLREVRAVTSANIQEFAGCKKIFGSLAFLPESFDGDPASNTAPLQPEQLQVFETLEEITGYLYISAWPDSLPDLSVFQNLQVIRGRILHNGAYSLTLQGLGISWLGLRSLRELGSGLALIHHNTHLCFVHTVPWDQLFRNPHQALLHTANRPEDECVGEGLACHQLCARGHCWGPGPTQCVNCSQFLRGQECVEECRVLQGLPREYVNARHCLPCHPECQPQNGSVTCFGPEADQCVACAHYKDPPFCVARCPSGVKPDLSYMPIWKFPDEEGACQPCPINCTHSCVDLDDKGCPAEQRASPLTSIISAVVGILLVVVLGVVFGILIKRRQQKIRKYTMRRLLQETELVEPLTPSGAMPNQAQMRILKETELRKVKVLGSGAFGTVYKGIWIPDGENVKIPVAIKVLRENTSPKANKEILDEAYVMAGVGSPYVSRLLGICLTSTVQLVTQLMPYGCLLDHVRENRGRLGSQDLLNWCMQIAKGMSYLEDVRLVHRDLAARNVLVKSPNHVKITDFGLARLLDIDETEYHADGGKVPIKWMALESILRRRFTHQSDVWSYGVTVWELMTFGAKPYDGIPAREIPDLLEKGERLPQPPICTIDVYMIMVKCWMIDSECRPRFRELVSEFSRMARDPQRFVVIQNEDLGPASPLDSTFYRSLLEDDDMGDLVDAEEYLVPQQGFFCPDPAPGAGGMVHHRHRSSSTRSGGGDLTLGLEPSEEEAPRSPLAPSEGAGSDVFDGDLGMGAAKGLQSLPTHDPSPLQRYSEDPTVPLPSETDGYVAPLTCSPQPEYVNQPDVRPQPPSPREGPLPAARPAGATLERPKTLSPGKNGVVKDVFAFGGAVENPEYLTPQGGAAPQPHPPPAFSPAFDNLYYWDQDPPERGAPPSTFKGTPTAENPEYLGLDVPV

Structure (SMILES): Cn1c(-c2csc(C3CCN(CC4=NC5N=CC=CC5N4)CC3)n2)nc2ccccc21 (stereo not given) [BAY-070]
Ki [1]: 1530 nM
Ki [2]: 1270 nM

Structure (SMILES): CC#CC(=O)N1CCC[C@H]1c1nc(-c2ccc(C(=O)Nc3ccccn3)cc2)c2c(N)nccn12 [ACALABRUTINIB]
% of control [3]: 2.1%
% of control [4]: 4.3%
IC50 [5]: > 10 µM
IC50 [6]: > 10 µM
IC50 [7]: > 10 µM
IC50 [8]: > 10 µM
IC50 [9]: > 10 µM
IC50 [10]: > 10 µM
IC50 [11]: > 10 µM
IC50 [12]: > 10 µM
% of control [13]: 6.4%

Structure (SMILES): Cn1cncc1[C@](O)(COc1ccc(C#N)cc1-c1ccc(OC(F)(F)F)cc1)c1ccc(C#N)cc1 [ABT-100]
Ki (Histamine H1 receptor [14]): > 10 µM
Kd [15]: > 10 µM
% of control [16]: 48%
Kd [17]: > 10 µM
% of control [18]: 46%
% of inhibition [19]: 97%
Kd (Ephrin type-A receptor 1): > 10 µM
% of control [20]: 38%
Kd [21]: > 10 µM
% of control [22]: 48%

Structure (SMILES): CCC(=N\O)/C(C)=C/c1ccc(F)c(C)c1 [A-226]
Ki [30]: 3.69 µM
% of control [31]: 38%
% of control [32]: 23%

Structure (SMILES): NS(=O)(=O)c1cc(NC(=O)Cc2ccccc2)ccc1Oc1cccc(Cl)c1 [BAY-1797]
Ki [34]: 4.58 µM

Next, values leading:

% of inhibition (Histamine H1 receptor [23]): 54%
Ki (Histamine H1 receptor [24]): > 10 µM
% of inhibition [25]: 62%
% of control [26]: 0%
% of control [27]: 0%
% of control [28]: 0%
% of inhibition [29]: 56%
Structure (SMILES): CCCCN(CCCC)C(=O)CN1C[C@H](c2cc(OC)c3c(c2)OCO3)[C@@H](C(=O)O)[C@@H]1CC(C)(C)CCC

Ki [33]: 289 nM
Structure (SMILES): CCCCN(CCCC)C(=O)CN1C[C@@H](c2cc(OC)c3c(c2)OCO3)[C@H](C(=O)O)[C@H]1CC(C)(C)CCC
